In this test the target is T1, human LXRβ (Homo sapiens, UniProt P55055).
T1 construct: expressed in transfected cells; host or cells: HEK293 cells (ATCC CRL-1573), transient transfection with pFA-hLXRβ/GAL4 and pUAS
T1 sequence (P55055 222-460 limits assumed): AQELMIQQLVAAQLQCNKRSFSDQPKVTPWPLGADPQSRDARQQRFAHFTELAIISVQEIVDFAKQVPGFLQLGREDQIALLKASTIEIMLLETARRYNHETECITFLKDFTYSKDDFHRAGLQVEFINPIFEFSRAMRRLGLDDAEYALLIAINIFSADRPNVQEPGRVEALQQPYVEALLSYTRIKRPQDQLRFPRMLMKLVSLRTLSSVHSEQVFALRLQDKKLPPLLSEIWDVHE
As to the kind of experiment: Assay for Transcriptional Activity of LXRβ (GAL4-hLXRβ LBD luciferase reporter, transient transfection). As to conditions: HEK293 cells transfected with pFA-hLXRβ/GAL4 and pUAS, 24 hours; for Emax: fold value in comparison with the control (DMSO-treated group); for EC50: increase of transcriptional activity of LXRβ, average of three independent tests. The format is cell-based. Summed up: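 EC50 values, averaged over three independent runs, come from a four-parameter fit of 9-point half-log curves spanning 0.01–50 μM. Luciferase output was read in lysed HEK293 cells 24 h after dosing at 37 °C, following transient transfection with a GAL4-human LXRβ LBD fusion plus GAL4-responsive reporter.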

In turn, `O=C(CCC1CCCC1)N1CC=C(c2cccc(C3CC(C(O)(C(F)(F)F)C(F)(F)F)=NN3c3ccccc3Cl)c2)CC1` (centres unmarked) [Example 233, 1-(2-chloro-phenyl)-5-{3-[1-(3-cyclopentyl-propionyl)-1,2,3,6-tetrahydropyridin-4-yl]-phenyl}-3-[di-(trifluoromethyl)-hydroxy-methyl]-4,5-dihydro-1H-pyrazole] showed an Emax of 72 fold and an EC50 of 21 nM.
In the same order, the values of `Cc1ccccc1-c1ccc(C2CC(C(O)(C(F)(F)F)C(F)(F)F)=NN2c2ccc(F)cc2F)cc1` (centres unmarked) [Example 371, 1-(2,4-difluoro-phenyl)-5-(2′-methyl-biphenyl-4-yl)-3-[di-(trifluoromethyl)-hydroxy-methyl]-4,5-dihydro-1H-pyrazole] are 34 fold and 636 nM.
`CS(=O)(=O)N1CCN(c2ccnc(C3CC(C(F)(F)C(F)(F)F)=NN3c3ccc(F)cc3F)c2)CC1` (centres unmarked) [Example 183, 1-(2,4-difluoro-phenyl)-5-[4-(4-methanesulfonyl-piperazin-1-yl)-pyridin-2-yl]-3-pentafluoroethyl-4,5-dihydro-1H-pyrazole]: the Emax stood at 79 fold and it took 3280 nM to reach a half-maximal effect (EC50).
In turn, `CS(=O)(=O)c1ccc(-c2cncc(C3CC(C(F)(F)C(F)(F)F)=NN3c3ccc(F)cc3F)c2)cn1` (centres unmarked) [Example 166, 1-(2,4-difluoro-phenyl)-5-[3-(6-methanesulfonyl-pyridin-3-yl)-pyridin-5-yl]-3-pentafluoroethyl-4,5-dihydro-1H-pyrazole] gave an Emax of 56 fold and a half-maximal effective concentration (EC50) of 7050 nM.
For `Fc1ccc(N2N=C(C(F)(F)C(F)(F)F)CC2c2cccc(-c3cncnc3)c2)c(F)c1` (centres unmarked) [Example 57, 1-(2,4-difluoro-phenyl)-3-pentafluoroethyl-5-[3-(5-pyrimidyl)-phenyl]-4,5-dihydro-1H-pyrazole], the Emax came out at 39 fold and a half-maximal response (EC50) required 4770 nM.
`Fc1ccc(N2N=C(C(F)(F)C(F)(F)F)CC2c2cccc(-c3ccccc3)c2)c(F)c1` (centres unmarked) [Example 94, 5-biphenyl-3-yl-1-(2,4-difluoro-phenyl)-3-pentafluoroethyl-4,5-dihydro-1H-pyrazole] yielded an Emax of 27 fold and an EC50 of 19000 nM.
`CN(CCO)S(=O)(=O)c1ccc(-c2ccc(C3CC(C(O)(C(F)(F)F)C(F)(F)F)=NN3c3ccc(F)cc3F)cc2)cc1` (centres unmarked) [Example 386, 1-(2,4-difluoro-phenyl)-5-{4′-[(2-hydroxy-ethyl)-methyl-sulfamoyl]-biphenyl-4-yl}-3-[di-(trifluoromethyl)-hydroxy-methyl]-4,5-dihydro-1H-pyrazole] registered an Emax of 35 fold and an EC50 of 170 nM.
Compound `CS(=O)(=O)c1ccc(-c2cccc(C3CC(C(F)(F)C(F)(F)F)=NN3c3ccc(F)cc3F)c2)nc1` (centres unmarked) [Example 81, 1-(2,4-difluoro-phenyl)-5-[3-(5-methanesulfonyl-pyridin-2-yl)-phenyl]-3-pentafluoroethyl-4,5-dihydro-1H-pyrazole] yielded an Emax of 78 fold and a concentration giving a half-maximal response (EC50) of 1400 nM.
The compound `CC(C)C(=O)N1CC=C(c2ccc(C3CC(C(O)(C(F)(F)F)C(F)(F)F)=NN3c3ccc(F)cc3F)cc2)CC1` (centres unmarked) [Example 402, 1-(2,4-difluoro-phenyl)-5-[4-(1-isobutyryl-1,2,3,6-tetrahydropyridin-4-yl)-phenyl]-3-[di-(trifluoromethyl)-hydroxy-methyl]-4,5-dihydro-1H-pyrazole] came in with an Emax of 23 fold and an EC50 of 1020 nM.
On to `CN(CCCS(=O)(=O)c1cccc(-c2ccc(C3CC(C(O)(C(F)(F)F)C(F)(F)F)=NN3c3ccccc3Cl)cc2)c1)C(=O)OC(C)(C)C` (centres unmarked) [Example 285, 5-{3′-[3-(N-BOC-N-methyl-amino)-propane-1-sulfonyl]-biphenyl-4-yl}-1-(2-chloro-phenyl)-3-[di-(trifluoromethyl)-hydroxy-methyl]-4,5-dihydro-1H-pyrazole], for which the Emax is 73 fold and the midpoint of the response, the EC50, lay at 62 nM.
For the compound `CSc1ccc(-c2ccc(C3CC(C(O)(C(F)(F)F)C(F)(F)F)=NN3c3ccccc3Cl)cc2)cn1` (centres unmarked) [Example 266, 1-(2-chloro-phenyl)-5-[4-(6-methylsulfanyl-pyridin-3-yl)-phenyl]-3-[di-(trifluoromethyl)-hydroxy-methyl]-4,5-dihydro-1H-pyrazole], the Emax was determined as 80 fold and the EC50 turned out to be 1390 nM.
With `COc1ccc(-c2ccc(C3CC(C(O)(C(F)(F)F)C(F)(F)F)=NN3c3ccccc3Cl)c(F)c2)cn1` (centres unmarked) [Example 343, 1-(2-chloro-phenyl)-5-[2-fluoro-4-(6-methoxy-pyridin-3-yl)-phenyl]-3-[di-(trifluoromethyl)-hydroxy-methyl]-4,5-dihydro-1H-pyrazole], the Emax is recorded as 81 fold and it took 617 nM to reach a half-maximal effect (EC50).
`CN(C)S(=O)(=O)N1CCCN(c2ccc(C3CC(C(O)(C(F)(F)F)C(F)(F)F)=NN3c3ccccc3Cl)cc2)CC1` (centres unmarked) [Example 326, 1-(2-chloro-phenyl)-5-[4-(4-dimethylsulfamoyl-homopiperazin-1-yl)-phenyl]-3-[di-(trifluoromethyl)-hydroxy-methyl]-4,5-dihydro-1H-pyrazole] came in with an Emax of 51 fold and an EC50 of 550 nM.
As for `OC(C1=NN(c2ccccc2Cl)C(c2ccc(-c3ccc(F)nc3)cc2)C1)(C(F)(F)F)C(F)(F)F` (centres unmarked) [Example 268, 1-(2-chloro-phenyl)-5-[4-(6-fluoro-pyridin-3-yl)-phenyl]-3-[di-(trifluoromethyl)-hydroxy-methyl]-4,5-dihydro-1H-pyrazole], the Emax is on record as 88 fold and the midpoint of the response, the EC50, lay at 452 nM.
The compound `CS(=O)(=O)N1CC=C(c2ccnc(C3CC(C(F)(F)C(F)(F)F)=NN3c3ccc(F)cc3F)c2)CC1` (centres unmarked) [Example 180, 1-(2,4-difluoro-phenyl)-5-[4-(1-methanesulfonyl-1,2,3,6-tetrahydropyridin-4-yl)-pyridin-2-yl]-3-pentafluoroethyl-4,5-dihydro-1H-pyrazole] gave an Emax of 118 fold and an EC50 of 513 nM.
On the same counts, the results for `O=S(=O)(C1CC1)N1CC=C(c2cccc(N3N=C(C(O)(C(F)(F)F)C(F)(F)F)CC3c3ccccc3Cl)c2)CC1` (centres unmarked) [Example 438, 5-(2-chloro-phenyl)-1-[3-(1-cyclopropanesulfonyl-1,2,3,6-tetrahydropyridin-4-yl)-phenyl]-3-[di-(trifluoromethyl)-hydroxy-methyl]-4,5-dihydro-1H-pyrazole] are 6 fold and 1930 nM.
On to `CS(=O)(=O)c1cc(F)c(-c2ccc(C3CC(C(O)(C(F)(F)F)C(F)(F)F)=NN3c3ccccc3Cl)cc2)c(F)c1` (centres unmarked) [Example 288, 1-(2-chloro-phenyl)-5-[2′,6′-difluoro-4′-(methylsulfonyl)-biphenyl-4-yl]-3-[di-(trifluoromethyl)-hydroxy-methyl]-4,5-dihydro-1H-pyrazole], for which the Emax came out at 40 fold and the half-maximal effective concentration (EC50) amounted to 727 nM.
In the same order, the values of `O=C(Cc1ccccc1)N1CC=C(c2cccc(C3CC(C(O)(C(F)(F)F)C(F)(F)F)=NN3c3ccccc3Cl)c2)CC1` (centres unmarked) [Example 236, 1-(2-chloro-phenyl)-5-[3-(1-phenylacetyl-1,2,3,6-tetrahydropyridin-4-yl)-phenyl]-3-[di-(trifluoromethyl)-hydroxy-methyl]-4,5-dihydro-1H-pyrazole] are 71 fold and 49 nM.
In turn, `CCS(=O)(=O)N1CC=C(c2ccc(C3CC(C(O)(C(F)(F)F)C(F)(F)F)=NN3c3ccccc3Cl)cc2)CC1` (centres unmarked) [Example 299, 1-(2-chloro-phenyl)-5-[4-(1-ethanesulfonyl-1,2,3,6-tetrahydropyridin-4-yl)-phenyl]-3-[di-(trifluoromethyl)-hydroxy-methyl]-4,5-dihydro-1H-pyrazole] came in with an Emax of 83 fold and a 50% effective concentration (EC50) of 316 nM.
In turn, `N#Cc1cncc(-c2ccc(C3CC(C(O)(C(F)(F)F)C(F)(F)F)=NN3c3ccccc3Cl)cc2)c1` (centres unmarked) [Example 278, 1-(2-chloro-phenyl)-5-[4-(5-cyano-pyridin-3-yl)-phenyl]-3-[di-(trifluoromethyl)-hydroxy-methyl]-4,5-dihydro-1H-pyrazole] gave an Emax of 68 fold and a concentration for a half-maximal effect (EC50) of 731 nM.
In the case of `CC(C)(C)OC(=O)N1CC=C(c2cccc(C3CC(C(O)(C(F)(F)F)C(F)(F)F)=NN3c3ccccc3Cl)c2)CC1` (centres unmarked) [Example 229, 1-(2-chloro-phenyl)-5-[3-(1-BOC-1,2,3,6-tetrahydropyridin-4-yl)-phenyl]-3-[di-(trifluoromethyl)-hydroxy-methyl]-4,5-dihydro-1H-pyrazole], the Emax was 126 fold and the EC50 is 76 nM.
The compound `COc1ncc(-c2ccc(C3CC(C(O)(C(F)(F)F)C(F)(F)F)=NN3c3ccccc3Cl)cc2)c(OC)n1` (centres unmarked) [Example 280, 1-(2-chloro-phenyl)-5-[4-(2,4-dimethoxy-pyrimidin-5-yl)-phenyl]-3-[di-(trifluoromethyl)-hydroxy-methyl]-4,5-dihydro-1H-pyrazole] registered an Emax of 81 fold and an EC50 of 556 nM.

For the origin of these results see patent US9376420B2 (YUHAN CORPORATION, priority 2012, dated 2016).
